# Assay results: patent publication US8791077B2, “Method for treating hyperuricemia employing an SGLT2 inhibitor and composition containing same” (AstraZeneca AB, priority 2008, dated 2014)
# Assays:
# diabetic patients = test: 12-week treatment of diabetic patients: urine glucose, HbA1C, urine volume, serum uric acid; type: in vivo, human; conditions: for Uric Acid (change in serum uric acid), mean ± standard deviation: 12 week treatment
# patients with diabetes = conditions: 5, 25, or 100 mg, FIG. 2
# Description: The levels of urine glucose of all subjects are shown in the plot and the mean urine glucose is in the darker lines.
# type 2 diabetic patients = tested on: type 2 diabetic patients
# Description: C-aryl glucoside SGLT2 inhibitors are known to reduce blood glucose levels in diabetic patients, see U.S. Pat. No. 6,774,112, which is incorporated herein by reference in its entirety, but not known to increase urine volume. […] Metformin reduces plasma glucose concentration by non-renal mechanisms and is not known to induce glucosuria. […] On day 1 and day 14, the patients were examined for the levels of glucosuria and changes in urine volumes. […] Patients' serum uric acid levels were not measured in this experiment.
# [1] = tested on: Healthy Normal Volunteers; test: Urinary glucose excretion over 24 hr in healthy normal volunteers after single doses of SGLT2 inhibitors; type: in vivo, human; conditions: healthy subjects; 5, 20, 50 or 100 mg; compared to GSK 869,682; FIG. 1
# SGLT2 relative to SGLT-1 = conditions: ratio of EC50 in SGLT1 and SGLT2 assay
# Description: Selectivity for SGLT2 of a given inhibitor can be determined by comparing the EC50 values measured in the SGLT1 and SGLT2 assay. […] The hSGLT1 and hSGLT2 sequences were cloned into pIRESneo vector (Clontech, Mountain View, Calif.) for mammalian expression and were stably transfected into Chinese hamster ovary (CHO) cells. SGLT-expressing clones were selected based on resistance to G418 antibiotic (GENETICIN®, Invitrogen, Carlsbad, Calif.) and activity in the ^14C-α-methyl-D-glucopyranoside (^14C-AMG) uptake assay.
# Cells expressing hSGLT1 or hSGLT2 were maintained using standard cell culture techniques. […] Sodium-dependent ^14C-AMG uptake was calculated by subtracting the counts per minute (CPM) observed under sodium-free uptake conditions from the counts observed under sodium-containing conditions. Inhibitors were assayed at various concentrations in triplicate in the presence of sodium, and the percent inhibition was calculated by comparing CPM in inhibitor-containing wells with CPM in wells containing only DMSO vehicle. Phlorizin, a known SGLT inhibitor, was evaluated in parallel in every assay. […]
smiles,measurement,setting,value
"CCOc1ccc(Cc2cc([C@@H]3O[C@H](CO)[C@@H](O)[C@H](O)[C@H]3O)ccc2Cl)cc1 [dapagliflozin PGS, dapagliflozin (S)-propylene glycol solvate]","Uric Acid (change in serum uric acid), mean ± standard deviation",diabetic patients; 2.5 mg,-1.03 ± 0.81 mg/dL
same,"Uric Acid (change in serum uric acid), mean ± standard deviation",diabetic patients; 5 mg,-1.12 ± 0.84 mg/dL
same,"Uric Acid (change in serum uric acid), mean ± standard deviation",diabetic patients; 10 mg,-0.98 ± 0.66 mg/dL
same,"Uric Acid (change in serum uric acid), mean ± standard deviation",diabetic patients; 20 mg,-1.13 ± 0.78 mg/dL
same,"Uric Acid (change in serum uric acid), mean ± standard deviation",diabetic patients; 50 mg,-1.14 ± 1.15 mg/dL
same,OGT,"diabetic patients; diabetic patients, 2.5-50 mg, after 12 weeks of treatment",improved OGT
same,Average of decrease in serum uric acid levels,"diabetic patients; diabetic patients, all doses, after 12 weeks treatment",approximately 1 g/dL
same,Urine glucose excretion compared to placebo,patients with diabetes,higher levels of urine glucose excretion
same,Fasting serum glucose (FSG) levels,type 2 diabetic patients; two-week period,Dose-dependent reduction
same,Postprandial glucose levels in oral glucose tolerance tests (OGTT),type 2 diabetic patients; two-week period,reduced postprandial glucose levels
same,Urine volumes,type 2 diabetic patients; two-week period,no increase in urine volumes was apparent
same,Urinary glucose levels within a 24-hour time period,"type 2 diabetic patients; vs placebo, FIG. 3",increased
same,"Glucosuric effect (glucose excretion/day within 24 hours), loss of calories in urine",[1],significant loss of calories in the urine
CCOc1ccc(Cc2cc([C@@H]3O[C@H](CO)[C@@H](O)[C@H](O)[C@H]3O)ccc2Cl)cc1 [dapagliflozin],Selectivity for SGLT2 relative to SGLT-1,SGLT2 relative to SGLT-1,High selectivity for SGLT2
"CN(C)C(=N)N=C(N)N [metformin, reference compound]","Uric Acid (change in serum uric acid), mean ± standard deviation",diabetic patients; metformin group,0.18 ± 0.53 mg/dL
same,Reduced HbA1C levels,"diabetic patients; diabetic patients, 1500 mg metformin",0.73%
